Where two headings read alike, the source gives them in different places.
Columns and labels:
[1] = biological target: T1, cGMP binding sites of the GST-cGB-PDE5 fusion protein (Homo sapiens, UniProt O76074); assay: cGMP binding assay with GST-cGB-PDE5 fusion protein; settings: for competition with cGMP binding at high concentration: 100 μM compound versus cGMP 2 μM
T1 construct: made in house; host or cells: E. coli BL21 (DE3)
Source text: RT-PCR method is used to obtain the cGB domain of PDE5 with forward and reverse primers designed from bovine PDE5A cDNA sequence (McAllister-Lucas L. M. et al, J. Biol. Chem. 268, 22863-22873, 1993) and the selection among PDE 1-10 families. 5′-3′, Inc. kits for total RNA followed by oligo (dT) column purification of mRNA are used with HT-29 cells. […] It is then cloned into pGEX-5X-3 glutathione-S-ransferase (GST) fusion vector (Pharmacia Biotech )with tac promoter, and EcoRI and XhoI cut sites. The fusion vector is then transfected into E. Coli BL21 (DE3) bacteria (Invitrogen). The transfected BL21 bacteria is grown to log phase, and then IPTG is added as an inducer. The induction is carried at 20° C. for 24 hrs. The bacteria are harvested and lysed. The soluble cell lysate is incubated with GSH conjugated Sepharose 4B (GSH-Sepharose 4B). The GST-cGB-pDE5 fusion protein can bind to the GSH-Sepharose beads, and the other proteins are washed off from beads with excessive cold PBS.
Then, the mixture is transferred to Brandel MB-24 cell harvester with GF/B as the filter membrane followed by 2 washes with 10 mL of cold 5 mM potassium buffer(pH 6.8). The membranes are then cut out and transferred to scintillation vials followed by the addition of 1 mL of H2O and 6 mL of Ready Safe™ liquid scintillation cocktail to each vial. The vials are counted on a Beckman LS 6500 scintillation counter.
The quenching by filter membrane or other debris are also calibrated.

native bovine PDE5 = native bovine PDE5 (Bos taurus, UniProt Q28156); settings: read-out: Kd of cGMP binding, native bovine PDE5; cited from earlier work
U937 cells = assay: apoptosis induction of U937 cells, active caspase 3 indirect immunofluorescence; format: cell-based; settings: 24 hours
Procedure: U937 cells (from ATCC Rockville, Md.) were grown in RPMI media supplemented with 5% FCS, glutamine, antibiotic/antimycotic and sodium pyruvate. Total RNA was isolated from two U937 cultures, one treated with 5 nM TPA for 48 hours and one grown in normal media as listed above, using the Rouche High Pure RNA Isolation Kit (cat #1 828 665) as per manufacturers protocol. cDNA was then synthesized from the total RNA using GibcoBRL SuperscriptII (Cat #18064-022) reverse transcriptase as per manufacturers protocol. The resulting cDNA was used as a template for RT-PCR reactions using primer sets specific for PDE2 (forward: […], reverse: […]) or PDE5 (forward: […], reverse: […]). mRNA for PDE2 and 5 were both present in the untreated U937 cells. Upon treatment with TPA, the relative amounts of PDE2 mRNA increased 5 fold. Therefore, U937 cells treated with TPA and driven to differentiate into an activated macrophage like state have elevated levels of PDE2 mRNA (see FIG. 1).
The presence of PDE2 and PDE5 protein within U937 cells was confirmed by indirect immunofluorescence (IIF). U937 cells were cultured as above. Two U937 cultures, one grown in the presence of 5 nM TPA for 48 hours and one grown in normal media were processed. All cultures were collected by centrifugation (Shandon Cytospin, 2 minutes @600 rpm) onto poly-L lysine-coated slides and immediately fixed in fresh 3% paraformaldehyde buffered in PBS for 10 minutes. Adherent cultures were grown on coverslips and fixed as above. Cells were permeablized in 0.2% Triton-100 for 2 minutes. Slides were blocked with blocking buffer (5% goat serum, 5% glycerol, 1% gelatin from cold water fish skin and 0.04% NaN3 in PBS) for 1 hour at room temperature.
Slides were then incubated for 1 hour at 37° C. in a humid chamber with antibodies specific for PDE2 (generated in a sheep against the peptide […]) or PDE5 (generated in sheep against the peptide […]). […]
The level of apoptosis in U937 cells was quantified by scoring 500 consecutive cells for the presence of active caspase 3. […]

CCCCOC1C2OP(=O)(O)OCC2OC1n1cnc2c(N)ncnc21 (stereo not drawn) [2′-O-butyl-cAMP]
competition with cGMP in binding to the cGMP binding sites of GST-cGB-PDE5 ([1]; 3H-cGMP 2 μM, 22° C., 1 hour): did not compete with cGMP in binding

CCCCOC1C2OP(=O)(O)OCC2OC1n1cnc2c(=O)[nH]c(N)nc21 (stereo not drawn) [2′-O-butyl-cGMP]
competition with cGMP in binding to the cGMP binding sites of GST-cGB-PDE5 ([1]; 3H-cGMP 2 μM, 22° C., 1 hour): did not compete with cGMP in binding

Nc1ncnc2c1ncn2[C@@H]1O[C@@H]2COP(=O)(O)O[C@H]2[C@H]1O [Cyclic AMP]
competition with cGMP in binding to the cGMP binding sites of GST-cGB-PDE5 [1]: did not compete with cGMP in binding

O=c1[nH]cnc2c1ncn2[C@@H]1O[C@@H]2COP(=O)(O)O[C@H]2[C@H]1O [Cyclic IMP]
competition with cGMP binding at high concentration [1]: can partially compete with cGMP

Nc1nc2c(nc(Br)n2[C@@H]2O[C@@H]3COP(=O)(O)O[C@H]3[C@H]2O)c(=O)[nH]1 [Example 8-bromo-cGMP, 8-bromo-cGMP]
competition with cGMP binding at high concentration [1]: can partially compete with cGMP

O=C([O-])C1CCN(c2nc(NCc3ccc4c(c3)OCO4)c3cc(Cl)ccc3n2)CC1.[Na+] [Example E4021]
competition with cGMP in binding to the cGMP binding sites of GST-cGB-PDE5 ([1]; 3H-cGMP 2 μM, 22° C., 1 hour): None of the PDE5 inhibitors showed any competition with cGMP in binding

CSc1ccc(/C=C2/C(C)=C(CC(=O)O)c3cc(F)ccc32)cc1 [Sulindac sulfide]
competition with cGMP in binding to the cGMP binding sites of GST-cGB-PDE5 ([1]; 3H-cGMP 2 μM, 22° C., 1 hour): None of the PDE5 inhibitors showed any competition with cGMP in binding

Nc1ccn([C@@H]2O[C@@H]3COP(=O)(O)O[C@H]3[C@H]2O)c(=O)n1 [cCMP]
competition with cGMP in binding to the cGMP binding sites of GST-cGB-PDE5 ([1]; 3H-cGMP 2 μM, 22° C., 1 hour): did not compete with cGMP in binding

Nc1nc2c(ncn2[C@@H]2O[C@@H]3COP(=O)(O)O[C@H]3[C@H]2O)c(=O)[nH]1 [cGMP, cyclic 3′,5′-guanosine monophosphate]
Kd (native bovine PDE5): 1300 nM
Kd ([1]; read-out: Kd of cGMP binding to GST-cGB-PDE5 fusion protein, two cGMP binding sites): 1600 ± 200 nM

O=c1ccn([C@@H]2O[C@@H]3COP(=O)(O)O[C@H]3[C@H]2O)c(=O)[nH]1 [cUMP, cyclic UMP]
competition with cGMP in binding to the cGMP binding sites of GST-cGB-PDE5 ([1]; 3H-cGMP 2 μM, 22° C., 1 hour): did not compete with cGMP in binding

CC1=C(CC(=O)O)c2cc(F)ccc2/C1=C\c1ccc(S(C)(=O)=O)cc1 [exisulind]
competition with cGMP in binding to the cGMP binding sites of GST-cGB-PDE5 ([1]; 3H-cGMP 2 μM, 22° C., 1 hour): None of the PDE5 inhibitors showed any competition with cGMP in binding

COc1ccc(C2CNC(=O)C2)cc1OC1CCCC1 (stereo not drawn) [rolipram]
levels of apoptosis (active caspase 3) (U937 cells; 0.5 uM): No increase in the levels of apoptosis compared to normal background was observed

CCCc1nn(C)c2c(=O)[nH]c(-c3cc(S(=O)(=O)N4CCN(C)CC4)ccc3OCC)nc12 [sildenafil]
levels of apoptosis (active caspase 3) (U937 cells; 0.3 nM): No increase in the levels of apoptosis compared to normal background was observed

CCCOc1ccccc1-c1nc2nn[nH]c2c(=O)[nH]1 [zaprinast]
competition with cGMP in binding to the cGMP binding sites of GST-cGB-PDE5 ([1]; 3H-cGMP 2 μM, 22° C., 1 hour): None of the PDE5 inhibitors showed any competition with cGMP in binding

— patent US6479493B1, “Methods for treatment of type I diabetes” (Cell Pathways, Inc., priority 2001, dated 2002)
